Data from US6673549B1, “Genes expressed in C3A liver cell cultures treated with steroids” (Incyte Corporation, priority 2000, dated 2004).

Test system: human C3A liver cells
Assay: Microarray differential gene expression in human C3A liver cell cultures treated with steroids
Assay type: cell-based
Excerpt: Incyte clones represent template sequences derived from the LWESEQ GOLD assembled human sequence database (Incyte Genomics). In cases where more than one clone was available for a particular template, the 5′-most clone in the template was used on the microarray. The HUMAN GENOME GEM series 1-4 microarrays (Incyte Genomics) contain 28,626 array elements which represent 10,068 annotated clusters and 18,558 unannotated clusters. For the UNIGEM series microarrays (Incyte Genomics), Incyte clones were mapped to non-redundant Unigene clusters (Unigene database (build 46), NCBI; Shuler (1997) J Mol Med 75:694-698), and the 5′ clone with the strongest BLAST alignment (at least 90% identity and 100 bp overlap) was chosen, verified, and used in the construction of the microarray. The UNIGEM V microarray (Incyte Genomics) contains 7075 array elements which represent 4610 annotated genes and 2,184 unannotated clusters.
To construct microarrays, cDNAs were amplified from bacterial cells using primers complementary to vector sequences flanking the cDNA insert. […] Amplified cDNAs were then purified using […]-400 columns (APB). Purified cDNAs were immobilized on polymer-coated glass slides. Glass microscope slides (Corning, Corning N.Y.) were cleaned by ultrasound in 0.1% SDS and acetone, with extensive distilled water washes between and after treatments. Glass slides were etched in 4% hydrofluoric acid (VWR Scientific Products, West Chester Pa.), washed thoroughly in distilled water, and coated with 0.05% aminopropyl silane (Sigma Aldrich) in 95% ethanol. Coated slides were cured in a 110° C. oven. cDNAs were applied to the coated glass substrate using a procedure described in U.S. Pat. No. 5,807,522. One microliter of the cDNA at an average concentration of 100 ng/μl was loaded into the open capillary printing element by a high-speed robotic apparatus which then deposited about 5 nl of cDNA per slide.
Microarrays were UV-crosslinked using a […] UV-crosslinker (Stratagene), and then washed at room temperature once in 0.2% SDS and three times in distilled water. Non-specific binding sites were blocked by incubation of microarrays in 0.2% casein in phosphate buffered saline (Tropix, Bedford Mich.) for 30 minutes at 60° C. followed by washes in 0.2% SDS and distilled water as before.
In all cases, mRNA from untreated early confluent C3A cells were prepared in parallel as described below.
Cells were harvested and lysed in 1 ml of TRIZOL reagent (5×10^6 cells/ml; Life Technologies). Lysates were vortexed thoroughly, incubated at room temperature for 2-3 minutes, and extracted with 0.5 ml chloroform. The extract was mixed, incubated at room temperature for 5 minutes, and centrifuged at 15,000 rpm for 15 minutes at 4° C. The aqueous layer was collected, and an equal volume of isopropanol was added. Samples were mixed, incubated at room temperature for 10 minutes, and centrifuged at 15,000 rpm for 20 minutes at 4° C. The supernatant was removed, and the RNA pellet was washed with 1 ml of 70% ethanol, centrifuged at 15,000 rpm at 4° C., and resuspended in RNAse-free water. The concentration of the RNA was determined by measuring the optical density at 260 nm.
Poly(A) RNA was prepared using an OLIGOTEX mRNA kit (Qiagen) with the following modifications: OLIGOTEX beads were washed in tubes instead of on spin columns, resuspended in elution buffer, and then loaded onto spin columns to recover mRNA. To obtain maximum yield, the mRNA was eluted twice.
Each poly(A) RNA sample was reverse transcribed using MMLV reverse-transcriptase, 0.05 pg/μl oligo-d(T) primer (21mer), 1× first strand buffer, 0.03 units/ul RNAse inhibitor, 500 uM dATP, 500 uM dGTP, 500 uM dTTP, 40 uM dCTP, and 40 uM either dCTP-Cy3 or dCTP-Cy5 (APB).

C[C@@H]1C[C@H]2[C@@H]3CCC4=CC(=O)C=C[C@]4(C)[C@@]3(F)[C@@H](O)C[C@]2(C)[C@@]1(O)C(=O)CO [dexomethasone]
Ave DE [log2] (C3A treated with steroid) (Clone ID 2947188): −0.98 log2

C[C@H]1C[C@H]2[C@@H]3CCC4=CC(=O)C=C[C@]4(C)[C@@]3(F)[C@@H](O)C[C@]2(C)[C@@]1(O)C(=O)CO [betamethasone]
Ave DE [log2] (C3A treated with steroid) (Clone ID 220378): 0.57 log2 | Ave DE [log2] (C3A treated with steroid) (Clone ID 615776): 1.11 log2 | Ave DE [log2] (C3A treated with steroid) (Clone ID 619447): 0.33 log2 | Ave DE [log2] (C3A treated with steroid) (Clone ID 686993): 0.51 log2 | Ave DE [log2] (C3A treated with steroid) (Clone ID 689296): 1.12 log2 | Ave DE [log2] (C3A treated with steroid) (Clone ID 1323327): 1.00 log2 | Ave DE [log2] (C3A treated with steroid) (Clone ID 1329625): 0.91 log2 | Ave DE [log2] (C3A treated with steroid) (Clone ID 1496011): 0.60 log2 | Ave DE [log2] (C3A treated with steroid) (Clone ID 1501410): −0.98 log2 | Ave DE [log2] (C3A treated with steroid) (Clone ID 1600180): 0.77 log2 | Ave DE [log2] (C3A treated with steroid) (Clone ID 1798594): 1.37 log2 | Ave DE [log2] (C3A treated with steroid) (Clone ID 1816768): 0.24 log2 | Ave DE [log2] (C3A treated with steroid) (Clone ID 1824860): 0.70 log2 | Ave DE [log2] (C3A treated with steroid) (Clone ID 1857044): 0.89 log2 | Ave DE [log2] (C3A treated with steroid) (Clone ID 1951845): 1.02 log2 | Ave DE [log2] (C3A treated with steroid) (Clone ID 2025128): 1.20 log2 | Ave DE [log2] (C3A treated with steroid) (Clone ID 2046717): 0.83 log2 | Ave DE [log2] (C3A treated with steroid) (Clone ID 2078880): −0.75 log2 | Ave DE [log2] (C3A treated with steroid) (Clone ID 2170820): 1.30 log2 | Ave DE [log2] (C3A treated with steroid) (Clone ID 2173002): 0.98 log2 | Ave DE [log2] (C3A treated with steroid) (Clone ID 2173973): 0.81 log2 | Ave DE [log2] (C3A treated with steroid) (Clone ID 2189061): 0.23 log2 | Ave DE [log2] (C3A treated with steroid) (Clone ID 2222155): 0.50 log2 | Ave DE [log2] (C3A treated with steroid) (Clone ID 2343836): 0.63 log2 | Ave DE [log2] (C3A treated with steroid) (Clone ID 2404746): 1.46 log2 | Ave DE [log2] (C3A treated with steroid) (Clone ID 2407620): 0.02 log2 | Ave DE [log2] (C3A treated with steroid) (Clone ID 2430165): 0.68 log2 | Ave DE [log2] (C3A treated with steroid) (Clone ID 2482388): 1.14 log2 | Ave DE [log2] (C3A treated with steroid) (Clone ID 2660756): 1.26 log2 | Ave DE [log2] (C3A treated with steroid) (Clone ID 2687356): 1.23 log2 | Ave DE [log2] (C3A treated with steroid) (Clone ID 2695371): 0.95 log2 | Ave DE [log2] (C3A treated with steroid) (Clone ID 2703282): −0.85 log2 | Ave DE [log2] (C3A treated with steroid) (Clone ID 2734007): 1.04 log2 | Ave DE [log2] (C3A treated with steroid) (Clone ID 2753065): 0.75 log2 | Ave DE [log2] (C3A treated with steroid) (Clone ID 3229449): 1.05 log2 | Ave DE [log2] (C3A treated with steroid) (Clone ID 3474091): 0.23 log2 | Ave DE [log2] (C3A treated with steroid) (Clone ID 3528232): 0.80 log2 | Ave DE [log2] (C3A treated with steroid) (Clone ID 3729593): 0.55 log2 | Ave DE [log2] (C3A treated with steroid) (Clone ID 3876612): 0.19 log2 | Ave DE [log2] (C3A treated with steroid) (Clone ID 3973687): 1.47 log2 | Ave DE [log2] (C3A treated with steroid) (Clone ID 4087621): 1.09 log2 | Ave DE [log2] (C3A treated with steroid) (Clone ID 4215034): 1.50 log2 | Ave DE [log2] (C3A treated with steroid) (Clone ID 4403805): 1.19 log2 | Ave DE [log2] (C3A treated with steroid) (Clone ID 4855265): 1.24 log2 | Ave DE [log2] (C3A treated with steroid) (Clone ID 5206821): 0.50 log2 | Ave DE [log2] (C3A treated with steroid) (Clone ID 5398701): 1.10 log2 | Ave DE [log2] (C3A treated with steroid) (Clone ID 5521873): 0.77 log2 | Ave DE [log2] (C3A treated with steroid) (Clone ID 5543385): 1.15 log2

C#C[C@]1(O)CC[C@H]2[C@@H]3CCC4=Cc5oncc5C[C@]4(C)[C@H]3CC[C@@]21C [donozol]
Ave DE [log2] (C3A treated with steroid) (Clone ID 2407620): −0.26 log2 | Ave DE [log2] (C3A treated with steroid) (Clone ID 3474091): −0.29 log2
